Assay results reported in PubChem BioAssay (NCI).
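The compound was tested at five concentrations on cells cultured in 96-well plates, with a 48-hour exposure period. The concentration for 50% growth inhibition is given as GI50. At the TGI there is no net growth.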

What was measured:
Assay in all cases: NCI anticancer screen, dose series, 48 h
786-0 renal = system: 786-0 renal
A498 renal = system: A498 renal
A549 NSCLC = system: A549 NSCLC
ACHN renal = system: ACHN renal
BT-549 breast = system: BT-549 breast
CAKI-1 renal = system: CAKI-1 renal
CCRF-CEM leukemia = system: CCRF-CEM leukemia
COLO 205 colon = system: COLO 205 colon
DU-145 prostate = system: DU-145 prostate
EKVX NSCLC = system: EKVX NSCLC
HCC-2998 colon = system: HCC-2998 colon
HCT-116 colon = system: HCT-116 colon
HCT-15 colon = system: HCT-15 colon
HL-60(TB) leukemia = system: HL-60(TB) leukemia
HOP-62 NSCLC = system: HOP-62 NSCLC
HOP-92 NSCLC = system: HOP-92 NSCLC
HS 578T breast = system: HS 578T breast
HT29 colon = system: HT29 colon
IGROV1 ovarian = system: IGROV1 ovarian
K-562 leukemia = system: K-562 leukemia
KM12 colon = system: KM12 colon
LOX IMVI melanoma = system: LOX IMVI melanoma
M14 melanoma = system: M14 melanoma
MALME-3M melanoma = system: MALME-3M melanoma
MCF7 breast = system: MCF7 breast
MDA-MB-231 breast = system: MDA-MB-231 breast
MOLT-4 leukemia = system: MOLT-4 leukemia
NCI-H226 lung = system: NCI-H226 lung
NCI-H23 lung = system: NCI-H23 lung
NCI-H460 lung = system: NCI-H460 lung
NCI-H522 lung = system: NCI-H522 lung
NCI/ADR-RES ovarian = system: NCI/ADR-RES ovarian
OVCAR-3 ovarian = system: OVCAR-3 ovarian
OVCAR-4 ovarian = system: OVCAR-4 ovarian
OVCAR-5 ovarian = system: OVCAR-5 ovarian
OVCAR-8 ovarian = system: OVCAR-8 ovarian
PC-3 prostate = system: PC-3 prostate
RPMI-8226 leukemia = system: RPMI-8226 leukemia
RXF 393 renal = system: RXF 393 renal
SF-268 CNS = system: SF-268 CNS
SF-295 CNS = system: SF-295 CNS
SF-539 CNS = system: SF-539 CNS
SK-MEL-2 melanoma = system: SK-MEL-2 melanoma
SK-MEL-28 melanoma = system: SK-MEL-28 melanoma
SK-MEL-5 melanoma = system: SK-MEL-5 melanoma
SK-OV-3 ovarian = system: SK-OV-3 ovarian
SN12C renal = system: SN12C renal
SNB-19 CNS = system: SNB-19 CNS
SNB-75 CNS = system: SNB-75 CNS
SR leukemia = system: SR leukemia
SW-620 colon = system: SW-620 colon
T-47D breast = system: T-47D breast
TK-10 renal = system: TK-10 renal
U251 CNS = system: U251 CNS
UACC-257 melanoma = system: UACC-257 melanoma
UACC-62 melanoma = system: UACC-62 melanoma
UO-31 renal = system: UO-31 renal
MDA-MB-435 = system: MDA-MB-435

Structure (SMILES): C=C(Cn1c2ccccc2c(=O)c2ccccc21)c1ccc(C(=O)Nc2ccccc2N)cc1
- GI50 (786-0 renal): 1.89 µM
- TGI (786-0 renal): > 100 µM
- TGI (A498 renal): > 27.2 µM
- GI50 (A549 NSCLC): 28.5 µM
- TGI (A549 NSCLC): > 100 µM
- GI50 (ACHN renal): > 100 µM
- TGI (ACHN renal): > 100 µM
- GI50 (BT-549 breast): 4.07 µM
- TGI (BT-549 breast): > 100 µM
- GI50 (CAKI-1 renal): > 26 µM
- TGI (CAKI-1 renal): > 100 µM
- GI50 (CCRF-CEM leukemia): 0.224 µM
- TGI (CCRF-CEM leukemia): 19.2 µM
- GI50 (COLO 205 colon): 16.2 µM
- TGI (COLO 205 colon): > 100 µM
- GI50 (DU-145 prostate): > 100 µM
- TGI (DU-145 prostate): > 100 µM
- GI50 (EKVX NSCLC): > 21.5 µM
- TGI (EKVX NSCLC): > 100 µM
- GI50 (HCC-2998 colon): 3.67 µM
- TGI (HCC-2998 colon): > 61.2 µM
- GI50 (HCT-116 colon): 4.5 µM
- TGI (HCT-116 colon): > 100 µM
- GI50 (HCT-15 colon): 3.48 µM
- TGI (HCT-15 colon): > 100 µM
- GI50 (HL-60(TB) leukemia): 0.662 µM
- TGI (HL-60(TB) leukemia): > 26.9 µM
- GI50 (HOP-62 NSCLC): > 27.3 µM
- TGI (HOP-62 NSCLC): > 100 µM
- GI50 (HOP-92 NSCLC): 5.87 µM
- TGI (HOP-92 NSCLC): > 100 µM
- GI50 (HS 578T breast): > 100 µM
- TGI (HS 578T breast): > 100 µM
- GI50 (HT29 colon): 2.52 µM
- TGI (HT29 colon): > 33.6 µM
- GI50 (IGROV1 ovarian): > 19.8 µM
- TGI (IGROV1 ovarian): > 100 µM
- GI50 (K-562 leukemia): 1.35 µM
- TGI (K-562 leukemia): > 100 µM
- GI50 (KM12 colon): 2.43 µM
- TGI (KM12 colon): > 100 µM
- GI50 (LOX IMVI melanoma): 50.4 µM
- TGI (LOX IMVI melanoma): > 100 µM
- GI50 (M14 melanoma): 12.2 µM
- TGI (M14 melanoma): > 100 µM
- GI50 (MALME-3M melanoma): 6.45 µM
- TGI (MALME-3M melanoma): > 100 µM
- GI50 (MCF7 breast): > 100 µM
- TGI (MCF7 breast): > 100 µM
- GI50 (MDA-MB-231 breast): 3.72 µM
- TGI (MDA-MB-231 breast): 56 µM
- GI50 (MOLT-4 leukemia): 0.767 µM
- TGI (MOLT-4 leukemia): > 26 µM
- GI50 (NCI-H226 lung): > 24.8 µM
- TGI (NCI-H226 lung): > 100 µM
- GI50 (NCI-H23 lung): 45.1 µM
- TGI (NCI-H23 lung): > 100 µM
- GI50 (NCI-H460 lung): 4.72 µM
- TGI (NCI-H460 lung): > 100 µM
- GI50 (NCI-H522 lung): 2.72 µM
- TGI (NCI-H522 lung): > 100 µM
- GI50 (NCI/ADR-RES ovarian): 2.31 µM
- TGI (NCI/ADR-RES ovarian): > 100 µM
- GI50 (OVCAR-3 ovarian): 6.5 µM
- TGI (OVCAR-3 ovarian): > 100 µM
- GI50 (OVCAR-4 ovarian): 0.0786 µM
- TGI (OVCAR-4 ovarian): 6.06 µM
- GI50 (OVCAR-5 ovarian): > 100 µM
- TGI (OVCAR-5 ovarian): > 100 µM
- GI50 (OVCAR-8 ovarian): > 100 µM
- TGI (OVCAR-8 ovarian): > 100 µM
- GI50 (PC-3 prostate): 0.761 µM
- TGI (PC-3 prostate): > 100 µM
- GI50 (RPMI-8226 leukemia): 0.36 µM
- TGI (RPMI-8226 leukemia): 3.06 µM
- GI50 (RXF 393 renal): > 100 µM
- TGI (RXF 393 renal): > 100 µM
- GI50 (SF-268 CNS): 5.74 µM
- TGI (SF-268 CNS): > 100 µM
- GI50 (SF-295 CNS): > 81.5 µM
- TGI (SF-295 CNS): > 100 µM
- GI50 (SF-539 CNS): 3.59 µM
- TGI (SF-539 CNS): > 100 µM
- GI50 (SK-MEL-2 melanoma): > 100 µM
- TGI (SK-MEL-2 melanoma): > 100 µM
- GI50 (SK-MEL-28 melanoma): > 100 µM
- TGI (SK-MEL-28 melanoma): > 100 µM
- GI50 (SK-MEL-5 melanoma): 4.58 µM
- TGI (SK-MEL-5 melanoma): > 100 µM
- GI50 (SK-OV-3 ovarian): 5.99 µM
- TGI (SK-OV-3 ovarian): > 100 µM
- GI50 (SN12C renal): > 100 µM
- TGI (SN12C renal): > 100 µM
- TGI (SNB-19 CNS): > 100 µM
- GI50 (SNB-75 CNS): 1.08 µM
- TGI (SNB-75 CNS): > 28 µM
- GI50 (SR leukemia): 0.605 µM
- TGI (SR leukemia): 2.25 µM
- GI50 (SW-620 colon): 6.56 µM
- TGI (SW-620 colon): > 100 µM
- GI50 (T-47D breast): 2.8 µM
- TGI (T-47D breast): > 80 µM
- GI50 (TK-10 renal): > 28.9 µM
- TGI (TK-10 renal): > 100 µM
- GI50 (U251 CNS): 8.1 µM
- TGI (U251 CNS): > 100 µM
- GI50 (UACC-257 melanoma): > 100 µM
- TGI (UACC-257 melanoma): > 100 µM
- GI50 (UACC-62 melanoma): > 100 µM
- TGI (UACC-62 melanoma): > 100 µM
- GI50 (UO-31 renal): 2.64 µM
- TGI (UO-31 renal): > 100 µM

Structure (SMILES): CCN(CC)CCNc1ccc([N+](=O)[O-])c2sc3cc(Cl)ccc3c(=O)c12
- GI50 (A498 renal): 5.31 µM
- TGI (A498 renal): 25.6 µM
- GI50 (A549 NSCLC): 2.89 µM
- TGI (A549 NSCLC): > 100 µM
- GI50 (BT-549 breast): 17.7 µM
- TGI (BT-549 breast): > 100 µM
- GI50 (CCRF-CEM leukemia): 3.17 µM
- TGI (CCRF-CEM leukemia): > 100 µM
- GI50 (COLO 205 colon): 3.93 µM
- TGI (COLO 205 colon): > 100 µM
- GI50 (DU-145 prostate): 7.68 µM
- TGI (DU-145 prostate): 25.1 µM
- GI50 (EKVX NSCLC): 10.7 µM
- TGI (EKVX NSCLC): > 100 µM
- GI50 (HCC-2998 colon): 11.1 µM
- TGI (HCC-2998 colon): > 100 µM
- GI50 (HCT-116 colon): 3.24 µM
- TGI (HCT-116 colon): > 100 µM
- GI50 (HCT-15 colon): 2.7 µM
- TGI (HCT-15 colon): > 100 µM
- GI50 (HL-60(TB) leukemia): 11.5 µM
- TGI (HL-60(TB) leukemia): > 100 µM
- GI50 (HOP-62 NSCLC): 2.7 µM
- TGI (HOP-62 NSCLC): > 100 µM
- GI50 (HOP-92 NSCLC): 2.15 µM
- TGI (HOP-92 NSCLC): 30.3 µM
- GI50 (HS 578T breast): 4.41 µM
- TGI (HS 578T breast): 37.1 µM
- GI50 (HT29 colon): 1.7 µM
- TGI (HT29 colon): > 100 µM
- GI50 (IGROV1 ovarian): 2.05 µM
- TGI (IGROV1 ovarian): 5.23 µM
- GI50 (KM12 colon): 6.77 µM
- TGI (KM12 colon): 53.6 µM
- GI50 (LOX IMVI melanoma): 2.8 µM
- TGI (LOX IMVI melanoma): > 100 µM
- GI50 (M14 melanoma): 3.1 µM
- TGI (M14 melanoma): > 100 µM
- GI50 (MCF7 breast): 3.28 µM
- TGI (MCF7 breast): > 100 µM
- GI50 (MDA-MB-231 breast): 1.74 µM
- TGI (MDA-MB-231 breast): 5.01 µM
- GI50 (MDA-MB-435): 2.83 µM
- TGI (MDA-MB-435): > 100 µM
- GI50 (MOLT-4 leukemia): 2.34 µM
- TGI (MOLT-4 leukemia): > 100 µM
- GI50 (NCI-H23 lung): 13.9 µM
- TGI (NCI-H23 lung): > 100 µM
- GI50 (NCI-H522 lung): 9.01 µM
- TGI (NCI-H522 lung): > 100 µM
- GI50 (OVCAR-3 ovarian): 4.62 µM
- TGI (OVCAR-3 ovarian): 32.3 µM
- GI50 (PC-3 prostate): 2.65 µM
- TGI (PC-3 prostate): > 100 µM
- GI50 (RPMI-8226 leukemia): 2.32 µM
- TGI (RPMI-8226 leukemia): 6.55 µM
- GI50 (SF-268 CNS): 9.88 µM
- TGI (SF-268 CNS): 46.9 µM
- GI50 (SF-295 CNS): 6.27 µM
- TGI (SF-295 CNS): > 100 µM
- GI50 (SF-539 CNS): 2.05 µM
- TGI (SF-539 CNS): 5.25 µM
- GI50 (SK-MEL-2 melanoma): 21.8 µM
- TGI (SK-MEL-2 melanoma): > 100 µM
- GI50 (SK-MEL-5 melanoma): 3.59 µM
- TGI (SK-MEL-5 melanoma): > 100 µM
- GI50 (SK-OV-3 ovarian): 3.33 µM
- TGI (SK-OV-3 ovarian): 96.5 µM
- GI50 (SN12C renal): 2.05 µM
- TGI (SN12C renal): 6.58 µM
- GI50 (SNB-19 CNS): 2.77 µM
- TGI (SNB-19 CNS): > 100 µM
- GI50 (SR leukemia): 4.7 µM
- TGI (SR leukemia): > 100 µM
- GI50 (SW-620 colon): 2.33 µM
- TGI (SW-620 colon): 27.8 µM
- GI50 (T-47D breast): 29.8 µM
- TGI (T-47D breast): > 100 µM
- GI50 (TK-10 renal): 2.97 µM
- TGI (TK-10 renal): > 100 µM
- GI50 (UACC-257 melanoma): 2.08 µM
- TGI (UACC-257 melanoma): 4.96 µM
- GI50 (UACC-62 melanoma): 3.11 µM
- TGI (UACC-62 melanoma): > 100 µM
